Test results: patent publication US7265121B2, “Chemical compounds” (Eli Lilly and Company, priority 2001, dated 2007)

Target: T1, human factor Xa (Homo sapiens, UniProt P00742)
T1 construct: 25 μL human factor Xa (32 nM in 0.03 M tris, 0.15 M NaCl, 1 mg/mL HSA); purchased Enzyme Research Laboratories (South Bend, Ind., USA)
Experiment: Enzyme inhibition assay: apparent association constant (Kass) for human factor Xa, chromogenic substrate hydrolysis
Assay type: biochemical
Details: human factor Xa 3.2 nM, BzIleGluGlyArgpNA substrate, approximately inverse of Ki
Description: Human factor Xa and human thrombin are purchased from Enzyme Research Laboratories (South Bend, Ind., USA). Other proteases are from other commercial sources. Chromogenic para-nitroanilide peptide protease substrates are purchased from Midwest Biotech (Fishers, Ind., USA).
The binding affinities for human factor Xa are were measured as apparent association constants (Kass) derived from protease inhibition kinetics as described previously.^a,b,c,d The apparent Kass values are obtained using automated (BioMek-1000) dilutions of inhibitors (Kass determinations are performed in triplicate at each of four-eight inhibitor concentrations) into 96-well plates and chromogenic substrate hydrolysis rates determined at 405 nm using a Thermomax plate reader from Molecular Devices (San Francisco). For factor Xa inhibition, the assay protocol is: 50 μL buffer (0.06 M tris, 0.3 M NaCl, pH 7.4); 25 μL inhibitor test solution (in MeOH); 25 μL human factor Xa (32 nM in 0.03 M tris, 0.15 M NaCl, 1 mg/mL HSA); finally, 150 μL BzIleGluGlyArgpNA (0.3 mM in water) added within 2 min to start hydrolysis. Final [factor Xa] is 3.2 nM. [Free Xa] and [bound Xa] are determined from linear standard curves on the same plate by use of SoftmaxPro software for each inhibitor concentration and apparent Kass calculated for each inhibitor concentration which produced hydrolysis inhibition between 20% and 80% of the control (3.2 nM factor Xa): apparent Kass [E:I]/[Ef][If]=[Eb]/[Ef][I^o−Ib]. The apparent Kass values so obtained are approximately the inverse of the Ki for the respective inhibitors [1/appKass=app Ki]. The variability of mean apparent Kass values determined at the single substrate concentration is +/−15%. The assay system Km was measured as 0.347+/−0.031 mM [n=4]; and Vmax was 13.11+/−0.76 μM/min.

T1 sequence (P00742 235-488 limits assumed): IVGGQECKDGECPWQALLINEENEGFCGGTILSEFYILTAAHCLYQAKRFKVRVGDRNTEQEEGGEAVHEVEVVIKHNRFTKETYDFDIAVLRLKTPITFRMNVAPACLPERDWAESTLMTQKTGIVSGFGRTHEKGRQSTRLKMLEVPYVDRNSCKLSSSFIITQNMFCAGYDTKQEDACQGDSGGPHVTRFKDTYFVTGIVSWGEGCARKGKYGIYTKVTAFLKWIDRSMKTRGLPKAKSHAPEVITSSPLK
T1 sequence (P00742 41-179 partner limits assumed): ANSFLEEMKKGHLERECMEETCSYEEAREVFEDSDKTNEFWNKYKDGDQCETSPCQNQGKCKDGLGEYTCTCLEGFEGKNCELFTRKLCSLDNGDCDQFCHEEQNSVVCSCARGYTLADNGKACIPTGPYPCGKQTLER

Structure (SMILES) | Kass
COc1ccc(C(=O)N[C@@H](C(=O)N2CCC(C3CCN(C)CC3)CC2)C(C)C)cc1.Cl [Example 6, 1-(4-Methoxybenzoyl-D-valinyl)-4-(1-methylpiperidin-4-yl)-piperidine Hydrochloride] | about 20 ×10^6 L/mole
CC(C)[C@@H](NC(=O)c1ccc2cc[nH]c2c1)C(=O)N1CCC(C2CCN(C)CC2)CC1.Cl [Example 9, 1-(Indole-6-carbonyl-D-valinyl)-4-(1-methylpiperidin-4-yl)piperidine Hydrochloride] | ~8.9e+07 L/mol
CC(C)[C@@H](NC(=O)c1cc2cc(Cl)ccc2[nH]1)C(=O)N1CCN(C2CCN(C)CC2)CC1.Cl [Example 18, 1-(5-Chloroindole-2-carbonyl-D-valinyl)-4-(1-methylpiperidin-4-yl)piperazine Hydrochloride] | ~3.58e+08 L/mol

Tested on: not given
Experiment: not given
Details: not given

Structure (SMILES) | melting point
C#CC[C@@H](NC(=O)c1cc2cc(Cl)ccc2[nH]1)C(=O)N1CCN(C2CCN(C)CC2)CC1.Cl | 174 to 185 °C (dec.)
C#CC[C@@H](NC(=O)c1ccc2cc[nH]c2c1)C(=O)N1CCN(C2CCN(C)CC2)CC1.Cl | 170 to 180 °C (dec.)
C#CC[C@@H](NC(=O)c1cc2ccc(Cl)cc2s1)C(=O)N1CCN(C2CCN(C)CC2)CC1.Cl | 115 to 135 °C (dec.)
C=CC[C@@H](NC(=O)c1ccc2cc[nH]c2c1)C(=O)N1CCN(C2CCN(C)CC2)CC1.Cl | 110 to 115 °C (dec.)
C=CC[C@@H](NC(=O)c1cc2ccc(Cl)cc2s1)C(=O)N1CCN(C2CCN(C)CC2)CC1.Cl | 130 to 135 °C (dec.)
C=CC[C@@H](NC(=O)c1cc2cc(Cl)ccc2[nH]1)C(=O)N1CCN(C2CCN(C)CC2)CC1.Cl | 170 to 175 °C (dec.)
